# Test results from patent US8207176B2 (Glaxo Group Limited, priority 2005, dated 2012).
# Counter-ions that a name gives are not always drawn.
# Legend:
# [1] = target: T1, Recombinant human p38α (MKK6-activated) (Homo sapiens, UniProt Q16539); experiment: Time-resolved fluorescence resonance energy transfer (TR-FRET) kinase assay (standard or low volume); type: biochemical; design: key: Compounds are considered active in this assay if they demonstrate a pIC50 of greater than 4.6 up to about a pIC50 of greater than 10.0; details: MKK6-activated p38α 100 pM, GST-ATF2 400 nM, 120 minutes at room temperature; either assay format
# T1 construct: His; made in house
# T1 sequence (Q16539 whole entry): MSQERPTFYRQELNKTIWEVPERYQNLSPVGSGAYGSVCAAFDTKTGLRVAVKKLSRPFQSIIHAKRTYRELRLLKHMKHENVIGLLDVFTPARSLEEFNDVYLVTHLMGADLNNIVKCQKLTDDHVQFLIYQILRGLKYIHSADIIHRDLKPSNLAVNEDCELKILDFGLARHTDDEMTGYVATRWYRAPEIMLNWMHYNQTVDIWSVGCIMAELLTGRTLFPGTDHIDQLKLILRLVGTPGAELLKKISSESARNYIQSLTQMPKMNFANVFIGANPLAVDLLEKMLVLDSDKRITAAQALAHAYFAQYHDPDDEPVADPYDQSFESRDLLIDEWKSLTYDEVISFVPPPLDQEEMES
# Description: It is noted that there are two assay formats shown above for the Fluorescence anisotropy kinase binding assay. The only difference between these two assays is the volume used and the plate type. […] The results described herein may have been performed in either assay format and are not differentiated as to which. […] TR-FRET Assay Time-Resolved Fluorescence Resonance Energy Transfer Kinase Standard Assay Recombinant human p38α was expressed as a His-tagged protein. To activate this protein, 3 μM unactivated p38α was incubated in 200 mM Hepes pH 7.4, 625 mM NaCl, 1 mM DTT with 27 nM active MKK6 (Upstate), 1 mM ATP and 10 mM MgCl2 The activity of the MKK6-activated p38α was assessed using a time-resolved fluorescence resonance energy transfer (TR-FRET) assay. Biotinylated-GST-ATF2 (residues 19-96, 400 nM final), ATP ([…]) and MgCl2 (5 mM final) in assay buffer (40 mM HEPES pH 7.4, 1 mM DTT) were added to wells containing 1 ul of various concentrations of compound or DMSO vehicle (3% final) in NUNC 384 well black plate. The reaction was initiated by the addition of MKK6-activated p38 (100 pM final) to give a total volume of 30 ul. The reaction was incubated for 120 minutes at room temperature, then terminated by the addition of 15 μl of 100 mM EDTA pH 7.4. Detection reagent (15 μl) in buffer (100 mM HEPES pH 7.4, 150 mM NaCl, 0.1% w/v BSA, 1 mM DTT) containing antiphosphothreonine-ATF2-71 polyclonal antibody (Cell Signalling Technology, Beverly Mass., USA) labelled with W-1024 europium chelate (Wallac OY, Turku, Finland), and APC-labelled streptavidin (Prozyme, San Leandro, Calif., USA) was added and the reaction was further incubated for 60 minutes at room temperature. The degree of phosphorylation of GST-ATF2 was measured using a Packard Discovery plate reader (Perkin-Elmer Life Sciences, Pangbourne, UK) as a ratio of specific 665 nm energy transfer signal to reference europium 620 nm signal. Time-Resolved Fluorescence Resonance Energy Transfer Kinase Low Volume Assay Recombinant human p38α was expressed as a His-tagged protein. To activate this protein, 3 μM unactivated p38α was incubated in 200 mM Hepes pH7.4, 625 mM NaCl, 1 mM DTT with 27 nM active MKK6 (Upstate), 1 mM ATP and 10 mM MgCl2 The activity of the MKK6-activated p38α was assessed using a time-resolved fluorescence resonance energy transfer (TR-FRET) assay. Biotinylated-GST-ATF2 (residues 19-96, 400 nM final), ATP (125 μM final) and MgCl2 ([…]) in assay buffer (40 mM HEPES pH 7.4, 1 mM DTT) were added to wells containing 0.1 μl of various concentrations of compound or DMSO vehicle (1.7% final) in Greiner low volume 384 well black plate. The reaction was initiated by the addition of MKK6-activated p38α (100 pM final) to give a total volume of 6 μl. The reaction was incubated for 120 minutes at room temperature, then terminated by the addition of 3 μl of detection reagent in buffer (100 mM HEPES pH 7.4, 150 mM NaCl, 0.1% w/v BSA, 1 mM DTT, 100 mM EDTA) containing antiphosphothreonine-ATF2-71 polyclonal antibody (Cell Signalling Technology, Beverly Mass., USA) labelled with W-1024 europium chelate (Wallac OY, Turku, Finland), and APC-labelled streptavidin (Prozyme, San Leandro, Calif., USA). The reaction was further incubated for 60 minutes at room temperature. The degree of phosphorylation of GST-ATF2 was measured using a BMG Rubystar plate reader (BMG, UK) as a ratio of specific 665 nm energy transfer signal to reference europium 620 nm signal. It is noted that there are two assay formats shown above for the Time-resolved fluorescence resonance energy transfer kinase assay. The only difference between these two assays is the volume used and the plate type. […] The results described herein may have been performed in either assay format and are not differentiated as to which. […] For purposes herein the HTRF assay and the Fluorescence anisotropy kinase binding assay: […]
# [2] = system: influx of neutrophils to the lung in LPS-challenged rats; experiment: Rat LPS neutrophilia model; type: in vivo; details: intratracheal, LPS aerosol 100 ug/ml 15 min, lavage 4 hours later, in at least one of the range of conditions tested, significant p<0.05, nonsignificant p>0.05
# Description: The effect of compounds on the influx of neutrophils to the lung in LPS-challenged rats is evaluated as follows. The test compound is suspended in one of the following solutions: 0.5% tween 80/PBS, 0.5% tween 80/saline, 10% EtOH/saline (with pH adjusted to 2.0, or 8.0 with HCl, or unadjusted), Saline @ pH 2.0, 6.5 or 8.0, 0.5% Tragacanth, 1% DMSO/20% Encapsin/Saline, or acidified 5% Tragacanth. The suspension process may be aided by the use of a glass homogenizer. For intratracheal administration, the animals are anesthetized with inhaled isoflurane and placed in a supine position, the trachea is intubated with a steel gavage needle (1.5 inch, 22 gauge, small ball) or a Penn-Century Microsprayer Aerosolizer (model IA-IB) and 200 ul of dosing solution is delivered. The animals are visually monitored during the recovery process, which typically occurs within two minutes. It is noted that the test compounds may be alternatively administered via the microsprayer in a dry powder blend with a suitable excipient, such as lactose.
# Rats treated with compound or vehicle (15 min-24 hours pretreatment) are exposed to an LPS aerosol (100 ug/ml) for 15 min. Four hours later the rats are euthanized with pentobarbital (100 mg/kg, i.p.) and the airways are lavaged with 5 washes of 5 ml of phosphate buffered saline. The harvested cells are stained (Diffquick) and counted to determine total and differential cell data. […] Inhibition of neutrophil levels relative to no compound controls is calculated based on the differential counts.
# The data is obtained as % inhibition using a particular concentration and pretreat time.
Compound,"pIC50, reported as active [1]",inhibition of neutrophilia (neutrophil levels in lung lavage relative to no compound controls) [2]
"CNC1CCN(c2nc(-c3cc(C(=O)Nc4ccc(F)cc4)ccc3C)c3ccc(=O)n(-c4c(F)cccc4F)c3n2)CC1 [114(b), 3-{8-(2,6-difluorophenyl)-2-[4-(methylamino)-1-piperidinyl]-7-oxo-7,8-dihydropyrido[2,3-d]pyrimidin-4-yl}-N-(4-fluorophenyl)-4-methylbenzamide]",active,
"CCN(CC)CCCNc1nc(-c2cc(C(=O)O)ccc2C)c2ccc(=O)n(-c3c(F)cccc3F)c2n1 [118(a), 3-[2-{[3-(diethylamino)propyl]amino}-8-(2,6-difluorophenyl)-7-oxo-7,8-dihydropyrido[2,3-d]-pyrimidin-4-yl]-4-methylbenzoic acid]",active,
"CCN(CC)CCCNc1nc(-c2cc(C(=O)NC(C)C)ccc2C)c2ccc(=O)n(-c3c(F)cccc3F)c2n1 [118(b), 3-[2-{[3-(diethylamino)propyl]amino}-8-(2,6-difluorophenyl)-7-oxo-7,8-dihydropyrido[2,3-d]pyrimidin-4-yl]-4-methyl-N-(1-methylethyl)benzamide]",active,
"CCN(CC)CCCNc1nc(-c2cccc(C(=O)Nc3nccs3)c2C)c2ccc(=O)n(-c3c(F)cccc3F)c2n1 [150(d), 3-[2-{[3-(diethylamino)propyl]amino}-8-(2,6-difluorophenyl)-7-oxo-7,8-dihydropyrido[2,3-d]pyrimidin-4-yl]-2-methyl-N-1,3-thiazol-2-ylbenzamide]",active,
"Cc1ccc(C(=O)O)cc1-c1nc(N2CCC(N3CCC(C)CC3)CC2)nc2c1ccc(=O)n2-c1c(F)cccc1F [163(b), 3-[8-(2,6-difluorophenyl)-2-(4-methyl-1,4′-bipiperidin-1′-yl)-7-oxo-7,8-dihydropyrido[2,3-d]pyrimidin-4-yl]-4-methylbenzoic acid]",active,
"CCN(CC)CCCNc1nc(-c2cc(C(=O)O)cc(F)c2C)c2ccc(=O)n(-c3c(F)cccc3F)c2n1 [179(b), 3-[2-{[3-(diethylamino)propyl]amino}-8-(2,6-difluorophenyl)-7-oxo-7,8-dihydropyrido[2,3-d]pyrimidin-4-yl]-5-fluoro-4-methylbenzoic acid trifluoroacetate]",active,
"CCN(CC)CCCNc1nc(-c2cc(C(=O)NC(C)C)cc(F)c2C)c2ccc(=O)n(-c3c(F)cccc3F)c2n1 [179(c), 3-[2-{[3-(diethylamino)propyl]amino}-8-(2,6-difluorophenyl)-7-oxo-7,8-dihydropyrido[2,3-d]pyrimidin-4-yl]-5-fluoro-4-methyl-N-(1-methylethyl)benzamide]",active,
"CCCNC(=O)c1ccc(-c2nc(NCCCN(CC)CC)nc3c2ccc(=O)n3-c2c(F)cccc2F)cc1 [188(b), 4-[2-{[3-(diethylamino)propyl]amino}-8-(2,6-difluorophenyl)-7-oxo-7,8-dihydropyrido[2,3-d]pyrimidin-4-yl]-N-propylbenzamide]",active,
"Cc1ccc(C(=O)NCC(F)(F)F)cc1-c1nc(N2CCC(N3CCC(C)CC3)CC2)nc2c1ccc(=O)n2-c1c(F)cccc1F [Example 172, 3-[8-(2,6-difluorophenyl)-2-(4-methyl-1,4′-bipiperidin-1′-yl)-7-oxo-7,8-dihydropyrido[2,3-d]pyrimidin-4-yl]-4-methyl-N-(2,2,2-trifluoroethyl)benzamide]",,inactive
"CCNC(=O)c1ccc(C)c(-c2nc(N3CCC(N4CCC(C)CC4)CC3)nc3c2ccc(=O)n3-c2c(F)cccc2F)c1 [Example 173, 3-[8-(2,6-difluorophenyl)-2-(4-methyl-1,4′-bipiperidin-1′-yl)-7-oxo-7,8-dihydropyrido[2,3-d]pyrimidin-4-yl]-N-ethyl-4-methylbenzamide]",,statistically significant inhibition
"Cc1ccc(C(=O)Nc2ccc(F)cc2)cc1-c1nc(N2CCC(N3CCC(C)CC3)CC2)nc2c1ccc(=O)n2-c1c(F)cccc1F [Example 174, 3-[8-(2,6-difluorophenyl)-2-(4-methyl-1,4′-bipiperidin-1′-yl)-7-oxo-7,8-dihydropyrido[2,3-d]pyrimidin-4-yl]N-(4-fluorophenyl)-4-methylbenzamide]",,inactive
"Cc1ccc(C(=O)NC2CCC2)cc1-c1nc(N2CCC(N3CCC(C)CC3)CC2)nc2c1ccc(=O)n2-c1c(F)cccc1F [Example 175, N-cyclobutyl-3-[8-(2,6-difluorophenyl)-2-(4-methyl-1,4′-bipiperidin-1′-yl)-7-oxo-7,8-dihydropyrido[2,3-d]pyrimidin-4-yl]-4-methylbenzamide]",,inactive
"Cc1ccc(C(=O)NC2CC2)cc1-c1nc(N2CCC(N3CCC(C)CC3)CC2)nc2c1ccc(=O)n2-c1c(F)cccc1F [Example 178, N-cyclopropyl-3-[8-(2,6-difluorophenyl)-2-(4-methyl-1,4′-bipiperidin-1′-yl)-7-oxo-7,8-dihydropyrido[2,3-d]pyrimidin-4-yl]-4-methylbenzamide]",,statistically nonsignificant inhibition
"CCCNC(=O)c1cc(F)c(C)c(-c2nc(NCCCN(CC)CC)nc3c2ccc(=O)n3-c2c(F)cccc2F)c1 [Example 181, 3-[2-{[3-(diethylamino)propyl]amino}-8-(2,6-difluorophenyl)-7-oxo-7,8-dihydropyrido[2,3-d]-pyrimidin-4-yl]-5-fluoro-4-methyl-N-propylbenzamide]",,statistically nonsignificant inhibition
"CCN(CC)CCCNc1nc(-c2cc(C(=O)NC3CC3)cc(F)c2C)c2ccc(=O)n(-c3c(F)cccc3F)c2n1 [Example 185, N-cyclopropyl-3-[2-{[3-(diethylamino)propyl]amino}-8-(2,6-difluorophenyl)-7-oxo-7,8-dihydropyrido[2,3-d]-pyrimidin-4-yl]-5-fluoro-4-methylbenzamide]",,statistically nonsignificant inhibition
